From ChEMBL document CHEMBL4387728, “Synthetic glycopeptides reveal specific binding pattern and conformational change at O-mannosylated position of α-dystroglycan by POMGnT1 catalyzed GlcNAc modification” (Bioorg Med Chem, 2019) come the findings set out here.

Activity calls are given as the source filed them. The rule behind the calls is not given here. Peptide text beside a SMILES is read from it. * marks the point of attachment. X1 = CC(=O)N[C@H]1[C@H](O[C@H]2[C@@H](O)[C@H](O)[C@@H](CO)O[C@@H]2*)O[C@H](CO)[C@@H](O[C@@H]2O[C@H](CO)[C@H](O)[C@H](O[C@]3(C(=O)O)C[C@H](O)[C@@H](NC(C)=O)[C@H]([C@H](O)[C@H](O)CO)O3)[C@H]2O)[C@@H]1O; GlcNAc(β1-2)αMan = CC(=O)N[C@H]1[C@H](O[C@H]2[C@@H](O)[C@H](O)[C@@H](CO)O[C@@H]2*)O[C@H](CO)[C@@H](O)[C@@H]1O; αMan = OC[C@H]1O[C@H](*)[C@@H](O)[C@@H](O)[C@@H]1O; Hexanoyl(5-oxo) = CC(=O)CCCC(=O)*

The target in assay [1] is Laminin subunit alpha-1 (Homo sapiens) (UniProt P25391). Description: Binding affinity to biotin-labeled human recombinant laminin-1 at 10 ug/ml in pH 5.6 MES buffer by fluorescence microarray method.
Laminin subunit alpha-1 (Homo sapiens), sequence (P25391 whole entry): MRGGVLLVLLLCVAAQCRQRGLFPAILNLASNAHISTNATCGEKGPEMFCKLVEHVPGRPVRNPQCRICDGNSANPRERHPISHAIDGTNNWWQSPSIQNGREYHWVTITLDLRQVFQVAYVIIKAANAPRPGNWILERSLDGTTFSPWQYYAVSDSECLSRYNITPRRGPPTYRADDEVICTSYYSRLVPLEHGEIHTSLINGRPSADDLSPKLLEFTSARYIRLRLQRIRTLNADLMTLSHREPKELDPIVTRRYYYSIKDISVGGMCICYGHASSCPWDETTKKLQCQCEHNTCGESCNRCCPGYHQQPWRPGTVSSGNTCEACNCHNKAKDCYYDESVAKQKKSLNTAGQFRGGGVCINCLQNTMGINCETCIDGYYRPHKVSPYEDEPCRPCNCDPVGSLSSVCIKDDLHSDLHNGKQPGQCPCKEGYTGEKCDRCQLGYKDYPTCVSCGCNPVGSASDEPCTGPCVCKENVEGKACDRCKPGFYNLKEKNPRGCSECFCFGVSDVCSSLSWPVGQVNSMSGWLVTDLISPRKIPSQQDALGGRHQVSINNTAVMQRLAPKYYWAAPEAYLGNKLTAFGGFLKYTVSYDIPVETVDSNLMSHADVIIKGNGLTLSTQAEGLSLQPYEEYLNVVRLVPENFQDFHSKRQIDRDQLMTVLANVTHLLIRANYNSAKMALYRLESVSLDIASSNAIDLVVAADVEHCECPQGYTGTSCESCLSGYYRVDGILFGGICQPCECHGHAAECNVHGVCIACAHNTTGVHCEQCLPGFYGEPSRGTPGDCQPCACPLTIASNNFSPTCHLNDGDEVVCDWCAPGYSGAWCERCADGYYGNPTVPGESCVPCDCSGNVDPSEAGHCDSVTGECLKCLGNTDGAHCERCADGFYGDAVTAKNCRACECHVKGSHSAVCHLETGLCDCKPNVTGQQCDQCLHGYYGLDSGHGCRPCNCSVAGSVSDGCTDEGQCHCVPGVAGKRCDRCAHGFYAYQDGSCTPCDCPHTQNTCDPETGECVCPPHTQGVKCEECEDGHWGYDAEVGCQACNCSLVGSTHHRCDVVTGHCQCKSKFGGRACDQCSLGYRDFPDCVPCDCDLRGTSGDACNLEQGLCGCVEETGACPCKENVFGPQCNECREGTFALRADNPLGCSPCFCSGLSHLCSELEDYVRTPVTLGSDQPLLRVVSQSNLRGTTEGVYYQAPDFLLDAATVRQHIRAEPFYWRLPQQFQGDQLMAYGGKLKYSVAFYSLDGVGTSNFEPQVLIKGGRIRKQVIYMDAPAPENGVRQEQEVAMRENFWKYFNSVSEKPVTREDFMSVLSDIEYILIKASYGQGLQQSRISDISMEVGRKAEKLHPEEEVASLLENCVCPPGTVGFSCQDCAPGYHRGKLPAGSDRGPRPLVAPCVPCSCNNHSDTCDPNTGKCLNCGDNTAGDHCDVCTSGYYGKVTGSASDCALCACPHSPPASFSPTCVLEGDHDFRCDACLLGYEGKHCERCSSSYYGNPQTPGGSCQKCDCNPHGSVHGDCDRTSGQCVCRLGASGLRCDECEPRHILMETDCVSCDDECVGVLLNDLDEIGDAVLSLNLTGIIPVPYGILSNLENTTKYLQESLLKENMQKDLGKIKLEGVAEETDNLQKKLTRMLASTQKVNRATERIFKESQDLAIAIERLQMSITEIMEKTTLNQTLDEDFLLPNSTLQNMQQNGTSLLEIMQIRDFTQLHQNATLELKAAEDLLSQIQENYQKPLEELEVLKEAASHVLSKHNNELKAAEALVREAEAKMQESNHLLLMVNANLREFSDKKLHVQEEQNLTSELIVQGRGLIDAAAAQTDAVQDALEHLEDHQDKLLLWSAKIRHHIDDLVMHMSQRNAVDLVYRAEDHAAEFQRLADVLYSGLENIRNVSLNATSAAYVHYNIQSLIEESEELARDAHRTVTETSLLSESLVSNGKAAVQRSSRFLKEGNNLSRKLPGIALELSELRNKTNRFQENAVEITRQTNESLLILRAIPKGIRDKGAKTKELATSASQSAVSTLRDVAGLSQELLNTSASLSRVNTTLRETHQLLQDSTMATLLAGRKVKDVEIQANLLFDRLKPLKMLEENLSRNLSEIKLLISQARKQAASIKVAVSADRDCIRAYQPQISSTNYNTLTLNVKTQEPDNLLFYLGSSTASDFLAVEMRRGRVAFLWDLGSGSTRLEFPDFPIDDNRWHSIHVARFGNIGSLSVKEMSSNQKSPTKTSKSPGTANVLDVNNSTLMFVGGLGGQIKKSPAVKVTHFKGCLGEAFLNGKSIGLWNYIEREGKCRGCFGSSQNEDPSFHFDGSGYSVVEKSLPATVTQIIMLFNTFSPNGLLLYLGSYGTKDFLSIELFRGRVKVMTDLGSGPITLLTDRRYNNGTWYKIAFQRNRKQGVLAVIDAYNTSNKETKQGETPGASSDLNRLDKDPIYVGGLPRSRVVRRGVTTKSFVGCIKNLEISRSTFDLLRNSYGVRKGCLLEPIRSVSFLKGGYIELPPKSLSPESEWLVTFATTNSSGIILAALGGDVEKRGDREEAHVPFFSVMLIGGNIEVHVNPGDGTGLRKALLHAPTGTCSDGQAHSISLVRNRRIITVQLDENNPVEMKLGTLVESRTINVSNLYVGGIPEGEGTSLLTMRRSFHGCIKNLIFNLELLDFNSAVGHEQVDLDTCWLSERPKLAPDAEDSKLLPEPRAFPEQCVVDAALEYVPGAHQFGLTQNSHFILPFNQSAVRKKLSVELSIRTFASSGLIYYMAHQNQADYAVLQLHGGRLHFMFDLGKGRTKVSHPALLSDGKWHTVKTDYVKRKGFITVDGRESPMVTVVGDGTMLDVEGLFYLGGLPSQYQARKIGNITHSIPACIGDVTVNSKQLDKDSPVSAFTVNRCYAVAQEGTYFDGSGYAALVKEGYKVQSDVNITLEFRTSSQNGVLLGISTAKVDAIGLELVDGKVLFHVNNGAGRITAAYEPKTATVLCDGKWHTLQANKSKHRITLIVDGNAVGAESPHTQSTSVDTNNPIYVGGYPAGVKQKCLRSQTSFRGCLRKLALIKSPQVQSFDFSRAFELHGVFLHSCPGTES
For a further assay, the system named is Maackia amurensis. Description: Binding affinity to biotin-labeled Maackia amurensis agglutinin in pH 7.4 Tris buffer by fluorescence microarray method.
The species named for assay [2] is Homo sapiens. The experiment in a line: Binding affinity to biotin-labeled human recombinant laminin-2 at 10 ug/ml in pH 7.4 Tris buffer by fluorescence microarray method.
In a further assay the test system is Triticum aestivum. The experiment in a line: Binding affinity to biotin-labeled Wheat germ agglutinin in pH 7.4 Tris buffer by fluorescence microarray method.
The next assay concerns Canavalia ensiformis. Description: Binding affinity to biotin-labeled Canavalia ensiformis agglutinin in pH 7.4 Tris buffer by fluorescence microarray method.
Assay [3] has as its target Lactotransferrin (Homo sapiens) (UniProt P02788). Description: Binding affinity to biotin-labeled lactoferrin (unknown origin) at 10 ug/ml in pH 5.6 MES buffer by fluorescence microarray method.
The species entered for assay [4] is Homo sapiens. Description: Binding affinity to biotin-labeled human recombinant laminin-2 at 10 ug/ml in 5.6 MES buffer by fluorescence microarray method.
In assay [5] the test system is Sambucus racemosa subsp. sieboldiana. Description: Binding affinity to biotin-labeled Sambucus sieboldiana agglutinin in pH 7.4 Tris buffer by fluorescence microarray method.
The target of assay [6] is Lactotransferrin (Homo sapiens) (UniProt P02788). The experiment in a line: Binding affinity to biotin-labeled lactoferrin (unknown origin) at 10 ug/ml in pH 7.4 Tris buffer by fluorescence microarray method.
Lactotransferrin (Homo sapiens), sequence (P02788 whole entry): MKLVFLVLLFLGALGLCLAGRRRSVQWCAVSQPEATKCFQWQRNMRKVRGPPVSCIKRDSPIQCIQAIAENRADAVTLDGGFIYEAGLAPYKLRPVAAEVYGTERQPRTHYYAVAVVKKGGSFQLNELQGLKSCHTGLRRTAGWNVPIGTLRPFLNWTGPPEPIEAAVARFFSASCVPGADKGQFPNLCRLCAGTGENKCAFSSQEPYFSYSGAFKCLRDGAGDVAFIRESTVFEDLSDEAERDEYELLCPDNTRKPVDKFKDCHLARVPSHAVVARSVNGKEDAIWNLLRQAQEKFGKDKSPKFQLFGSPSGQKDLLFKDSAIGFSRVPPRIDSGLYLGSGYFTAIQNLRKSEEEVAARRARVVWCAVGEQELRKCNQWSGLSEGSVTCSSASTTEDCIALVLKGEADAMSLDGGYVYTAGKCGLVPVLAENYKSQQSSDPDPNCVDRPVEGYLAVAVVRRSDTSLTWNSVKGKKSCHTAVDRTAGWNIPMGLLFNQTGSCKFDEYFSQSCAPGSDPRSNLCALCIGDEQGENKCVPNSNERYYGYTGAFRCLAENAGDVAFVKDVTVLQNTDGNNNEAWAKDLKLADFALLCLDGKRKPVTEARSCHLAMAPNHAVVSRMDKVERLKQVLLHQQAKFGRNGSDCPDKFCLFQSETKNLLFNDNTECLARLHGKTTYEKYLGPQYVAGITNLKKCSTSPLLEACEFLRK
In the next assay the test system is Erythrina crista-galli. Description: Binding affinity to biotin-labeled Erythrina crista-galli agglutinin in pH 7.4 Tris buffer by fluorescence microarray method.
For assay [7], the target named is Laminin subunit alpha-1 (Homo sapiens) (UniProt P25391). Description: Binding affinity to biotin-labeled human recombinant laminin-1 at 10 ug/ml in pH 7.4 Tris buffer by fluorescence microarray method.
For another assay, the system named is Arachis hypogaea. The experiment in a line: Binding affinity to biotin-labeled Arachis hypogaea agglutinin in pH 7.4 Tris buffer by fluorescence microarray method.
The next assay has as its system Datura stramonium. The experiment in a line: Binding affinity to biotin-labeled Datura stramonium agglutinin in pH 7.4 Tris buffer by fluorescence microarray method.
The nature of assay [8]: Binding affinity to biotin-labeled Agaricus bisporus agglutinin in pH 7.4 Tris buffer by fluorescence microarray method.

Regarding `CC[C@H](C)[C@H](NC(=O)[C@H](C)NC(=O)CNC(=O)[C@H](CCCNC(=N)N)NC(=O)[C@@H](NC(=O)CCCC(C)=O)[C@@H](C)O)C(=O)N[C@H](C(=O)N[C@@H](CCC(N)=O)C(=O)N[C@H](C(=O)N1CCC[C@H]1C(=O)N[C@H](C(=O)N[C@@H](CC(C)C)C(=O)NCC(=O)N1CCC[C@H]1C(=O)N[C@H](C(=O)N[C@@H](CCC(N)=O)C(=O)N1CCC[C@H]1C(=O)N[C@H](C(=O)N[C@@H](CCCNC(=N)N)C(=O)N[C@H](C(N)=O)C(C)C)[C@@H](C)O)[C@@H](C)CC)[C@@H](C)O)[C@@H](C)O)[C@@H](C)CC` ({Hexanoyl(5-oxo)}-TRGAIIQTPTLGPIQPTRV-NH2), the result (in [1]; in the assay with Triticum aestivum; in the assay with Canavalia ensiformis; in assay [3]; in the assay listed under Homo sapiens [4]; in assay [5]) was Active. The outcome (in the assay on Erythrina crista-galli; in [7]; in the assay on Arachis hypogaea; in assay [8]) was Active. Further, the result (in the assay with Maackia amurensis; in the assay listed under Homo sapiens [2]; in assay [6]; in the assay with Datura stramonium) was inactive.
As for `CC[C@H](C)[C@H](NC(=O)[C@H](C)NC(=O)CNC(=O)[C@H](CCCNC(=N)N)NC(=O)[C@@H](NC(=O)CCCC(C)=O)[C@@H](C)O)C(=O)N[C@H](C(=O)N[C@@H](CCC(N)=O)C(=O)N[C@H](C(=O)N1CCC[C@H]1C(=O)N[C@H](C(=O)N[C@@H](CC(C)C)C(=O)NCC(=O)N1CCC[C@H]1C(=O)N[C@H](C(=O)N[C@@H](CCC(N)=O)C(=O)N1CCC[C@H]1C(=O)N[C@H](C(=O)N[C@@H](CCCNC(=N)N)C(=O)N[C@H](C(N)=O)C(C)C)[C@@H](C)O[C@H]1O[C@H](CO)[C@@H](O)[C@H](O)[C@@H]1O[C@@H]1O[C@H](CO)[C@@H](O)[C@H](O)[C@H]1NC(C)=O)[C@@H](C)CC)[C@@H](C)O[C@H]1O[C@H](CO)[C@@H](O)[C@H](O)[C@@H]1O[C@@H]1O[C@H](CO)[C@@H](O[C@@H]2O[C@H](CO)[C@H](O)[C@H](O[C@]3(C(=O)O)C[C@H](O)[C@@H](NC(C)=O)[C@H]([C@H](O)[C@H](O)CO)O3)[C@H]2O)[C@H](O)[C@H]1NC(C)=O)[C@@H](C)O)[C@@H](C)CC` ({Hexanoyl(5-oxo)}-TRGAIIQTPT(X1)LGPIQPT(GlcNAc(β1-2)αMan)RV-NH2), the outcome (in assay [1]; in the assay with Triticum aestivum; with Canavalia ensiformis; in assay [3]; in the assay listed under Homo sapiens [4]; in [5]) was Active. For the same compound, the result (with Erythrina crista-galli; in [7]; in the assay with Arachis hypogaea; in assay [8]) was Active. Further, the result (in the assay on Maackia amurensis; in the assay filed under Homo sapiens [2]; in [6]; with Datura stramonium) was inactive.
On to `CC[C@H](C)[C@H](NC(=O)[C@H](C)NC(=O)CNC(=O)[C@H](CCCNC(=N)N)NC(=O)[C@@H](NC(=O)CCCC(C)=O)[C@@H](C)O)C(=O)N[C@H](C(=O)N[C@@H](CCC(N)=O)C(=O)N[C@H](C(=O)N1CCC[C@H]1C(=O)N[C@H](C(=O)N[C@@H](CC(C)C)C(=O)NCC(=O)N1CCC[C@H]1C(=O)N[C@H](C(=O)N[C@@H](CCC(N)=O)C(=O)N1CCC[C@H]1C(=O)N[C@H](C(=O)N[C@@H](CCCNC(=N)N)C(=O)N[C@H](C(N)=O)C(C)C)[C@@H](C)O)[C@@H](C)CC)[C@@H](C)O)[C@@H](C)O[C@H]1O[C@H](CO)[C@@H](O)[C@H](O)[C@@H]1O[C@@H]1O[C@H](CO)[C@@H](O)[C@H](O)[C@H]1NC(C)=O)[C@@H](C)CC` ({Hexanoyl(5-oxo)}-TRGAIIQT(GlcNAc(β1-2)αMan)PTLGPIQPTRV-NH2), for which the outcome (in [1]; in the assay on Triticum aestivum; with Canavalia ensiformis; in assay [3]; in the assay filed under Homo sapiens [4]; in assay [5]) was Active. In addition, the outcome (in the assay with Erythrina crista-galli; in assay [7]; in the assay on Arachis hypogaea; in assay [8]) was Active. In addition, the result (in the assay with Maackia amurensis; in the assay listed under Homo sapiens [2]; in [6]; in the assay on Datura stramonium) was inactive.
Turning to `CC[C@H](C)[C@H](NC(=O)[C@H](C)NC(=O)CNC(=O)[C@H](CCCNC(=N)N)NC(=O)[C@@H](NC(=O)CCCC(C)=O)[C@@H](C)O)C(=O)N[C@H](C(=O)N[C@@H](CCC(N)=O)C(=O)N[C@H](C(=O)N1CCC[C@H]1C(=O)N[C@H](C(=O)N[C@@H](CC(C)C)C(=O)NCC(=O)N1CCC[C@H]1C(=O)N[C@H](C(=O)N[C@@H](CCC(N)=O)C(=O)N1CCC[C@H]1C(=O)N[C@H](C(=O)N[C@@H](CCCNC(=N)N)C(=O)N[C@H](C(N)=O)C(C)C)[C@@H](C)O[C@H]1O[C@H](CO)[C@@H](O)[C@H](O)[C@@H]1O)[C@@H](C)CC)[C@@H](C)O[C@H]1O[C@H](CO)[C@@H](O)[C@H](O)[C@@H]1O[C@@H]1O[C@H](CO)[C@@H](O[C@@H]2O[C@H](CO)[C@H](O)[C@H](O[C@]3(C(=O)O)C[C@H](O)[C@@H](NC(C)=O)[C@H]([C@H](O)[C@H](O)CO)O3)[C@H]2O)[C@H](O)[C@H]1NC(C)=O)[C@@H](C)O)[C@@H](C)CC` ({Hexanoyl(5-oxo)}-TRGAIIQTPT(X1)LGPIQPT(αMan)RV-NH2), the outcome (in [1]; with Triticum aestivum; in the assay with Canavalia ensiformis; in assay [3]; in the assay listed under Homo sapiens [4]; in assay [5]) was Active. Further, the result (in the assay on Erythrina crista-galli; in [7]; in the assay with Arachis hypogaea; in [8]) was Active. Further, the outcome (in the assay on Maackia amurensis; in the assay listed under Homo sapiens [2]; in assay [6]; with Datura stramonium) was inactive.
